# In US5124339A, “Agents for potentiating the effects of antitumor agents and combating multiple drug resistance” (Burroughs Wellcome Company, priority 1989, dated 1992):
# Counter-ions that a name gives are not always drawn. *1 amine or outer side, *2 acyl side, *3 side chain or, on linkers, in order; H or OH if unused. Where a SMILES comes first, the peptide text is derived from it. Bridges are numbered along the chain shown (N, C = ends). Roman numbers before positions name the chains, in order. [ ]: non-standard residue; d: D form. Actinocin(9to1) = Cc1c2oc3c(C)ccc(C(=O)[*:1])c3nc-2c(C(=O)[*:2])c(N)c1=O; NMeV = CN[C@H](C(=O)O)C(C)C; Sar = CNCC(=O)O
# Legend:
# [1] = test system: resistant sublines of murine leukemia cells; conditions: Tsuruo et al., Cancer Res.; cited from earlier work
# [2] = In vitro cytotoxicity of potentiating agents, MTT absorbance (drug resistant KB); conditions: human, kb v-1 cells
# Protocol: (§1) After 48 hours of incubation at 37° C., the media is changed and cells are treated with actinomycin D at 0.1 nM (3-1) or 20 nM (V-1). The test potentiating agent is introduced to one-half the untreated cultures and one-half the Act D treated cultures at 1 and 10 μM. After 96 hours of additional incubation at 37° C., 0.5 mg/ml MTT dye is added, the cells are incubated for three hours, after which the cells are dissolved in DMSO, and the absorbance is then read at 570 nm.
# [3] = test system: Drug Resistant KB V-1 human KB epidermoid carcinoma cells; assay: as above; conditions: KB V-1, 96 h, Act D alone = 1.00
# Protocol: as §1
# [4] = test system: Wildtype AUXB1 Chinese hamster ovary cells; assay: In vitro cytotoxicity of potentiating agents, MTT absorbance (wildtype CHO); conditions: AUXB1, 96 h, Act D alone = 1.00
# [5] = as above; conditions: chinese hamster, auxb1 cells
# [6] = In vitro cytotoxicity of potentiating agents, MTT absorbance (wildtype KB); conditions: human, kb 3-1 cells
# Protocol: as §1
# [7] = test system: Wildtype KB 3-1 human KB epidermoid carcinoma cells; assay: as above; conditions: KB 3-1, 96 h, Act D alone = 1.00
# Protocol: as §1
# [8] = test system: Drug Resistant C5S32 Chinese hamster ovary cells; assay: In vitro cytotoxicity of potentiating agents, MTT absorbance (drug resistant CHO); conditions: for Normalized absorbance (surviving cells), potentiating agent + ACT D, fraction of Act D alone: C5S32, 96 h, Act D alone = 1.00
# [9] = as above; conditions: chinese hamster, c5s32 cells
# [10] = test system: Chinese hamster ovary cells (AuxBl and C5S32); assay: Reduction in cell number by Act D alone, MTT absorbance; conditions: Cricetulus griseus, CHO, read-out: reduction in cell number below the value of completely untreated cultures
compound,measurement,setting,value
CN(C)CCCN1c2ccccc2CCc2ccc(Cl)cc21 [clomipramine],enhance the activity of antitumor agents against resistant sublines of murine leukemia cells,[1],enhance the activity of antitumor agents against resistant sublines of murine leukemia cells
CN1CCN(CCCN2c3ccccc3Sc3ccc(C(F)(F)F)cc32)CC1 [trifluoperazine],enhance the activity of antitumor agents against resistant sublines of murine leukemia cells,[1],enhance the activity of antitumor agents against resistant sublines of murine leukemia cells
"COc1ccc(CN(CCN(C)C)c2cccc(/C=C/C(=O)O)n2)cc1 [(A), (E)-3-(6-(N-(2-Dimethylaminoethyl)-4-methoxybenzyl-amino)-2-pyridyl)acrylic acid]","viability at 96 h, 1 µM",[2],70%
same,"viability at 96 h, 10 µM",[2],73%
same,"Normalized absorbance (surviving cells), potentiating agent + ACT D, fraction of Act D alone",[3]; 1 μM + Act D 20 nM,0.85
same,"Normalized absorbance (surviving cells), potentiating agent + ACT D, fraction of Act D alone",[3]; 10 μM + Act D 20 nM,0.80
same,"Normalized absorbance (surviving cells), potentiating agent + ACT D, fraction of Act D alone",[4]; 1 μM + Act D 0.01 μM,0.64
same,"Normalized absorbance (surviving cells), potentiating agent + ACT D, fraction of Act D alone",[4]; 10 μM + Act D 0.01 μM,0.05
same,"viability at 96 h, 1 µM",[5],100%
same,"viability at 96 h, 10 µM",[5],41%
same,"viability at 96 h, 1 µM",[6],100%
same,"viability at 96 h, 10 µM",[6],99%
same,"Normalized absorbance (surviving cells), potentiating agent + ACT D, fraction of Act D alone",[7]; 1 μM + Act D 0.1 nM,0.96
same,"Normalized absorbance (surviving cells), potentiating agent + ACT D, fraction of Act D alone",[7]; 10 μM + Act D 0.1 nM,0.97
same,"Normalized absorbance (surviving cells), potentiating agent + ACT D, fraction of Act D alone",[8]; 1 μM + Act D 0.5 μM,1.00
same,"Normalized absorbance (surviving cells), potentiating agent + ACT D, fraction of Act D alone",[8]; 10 μM + Act D 0.5 μM,0.13
same,"viability at 96 h, 1 µM",[9],68%
same,"viability at 96 h, 10 µM",[9],28%
C=C[C@H]1C[N@@]2CC[C@H]1C[C@@H]2[C@@H](O)c1ccnc2ccc(OC)cc12 [quinidine],enhance the activity of antitumor agents against resistant sublines of murine leukemia cells,[1],enhance the activity of antitumor agents against resistant sublines of murine leukemia cells
"COc1ccc(CN(CCN(C)C)c2ccc(Br)cn2)cc1 [(B), N-(5-Bromo-2-pyridyl)-N-(4-methoxybenzyl)-N',N'-dimethyl-1,2-ethanediaminehydrobromide]","viability at 96 h, 1 µM",[2],77%
same,"viability at 96 h, 10 µM",[2],56%
same,"Normalized absorbance (surviving cells), potentiating agent + ACT D, fraction of Act D alone",[3]; 1 μM + Act D 20 nM,0.85
same,"Normalized absorbance (surviving cells), potentiating agent + ACT D, fraction of Act D alone",[3]; 10 μM + Act D 20 nM,0.80
same,"Normalized absorbance (surviving cells), potentiating agent + ACT D, fraction of Act D alone",[4]; 1 μM + Act D 0.01 μM,1.00
same,"Normalized absorbance (surviving cells), potentiating agent + ACT D, fraction of Act D alone",[4]; 10 μM + Act D 0.01 μM,1.00
same,"viability at 96 h, 1 µM",[5],100%
same,"viability at 96 h, 10 µM",[5],100%
same,"viability at 96 h, 1 µM",[6],97%
same,"viability at 96 h, 10 µM",[6],86%
same,"Normalized absorbance (surviving cells), potentiating agent + ACT D, fraction of Act D alone",[7]; 1 μM + Act D 0.1 nM,0.89
same,"Normalized absorbance (surviving cells), potentiating agent + ACT D, fraction of Act D alone",[7]; 10 μM + Act D 0.1 nM,0.92
same,"Normalized absorbance (surviving cells), potentiating agent + ACT D, fraction of Act D alone",[8]; 1 μM + Act D 0.5 μM,1.00
same,"Normalized absorbance (surviving cells), potentiating agent + ACT D, fraction of Act D alone",[8]; 10 μM + Act D 0.5 μM,0.56
same,"viability at 96 h, 1 µM",[9],100%
same,"viability at 96 h, 10 µM",[9],91%
COC(=O)C1=C(C)NC(C)=C(C(=O)OCCN(C)Cc2ccccc2)C1c1cccc([N+](=O)[O-])c1 (centres unmarked) [nicardipine],enhance the activity of antitumor agents against resistant sublines of murine leukemia cells,[1],enhance the activity of antitumor agents against resistant sublines of murine leukemia cells
COc1ccc(CCN(C)CCCC(C#N)(c2ccc(OC)c(OC)c2)C(C)C)cc1OC (centres unmarked) [Verapamil],enhance the activity of antitumor agents against resistant sublines of murine leukemia cells,[1],enhance the activity of antitumor agents against resistant sublines of murine leukemia cells
CCN(CC)CCn1c(=O)c(Cc2ccc(OC)cc2)nc2ccccc21 [caroverine],enhance the activity of antitumor agents against resistant sublines of murine leukemia cells,[1],enhance the activity of antitumor agents against resistant sublines of murine leukemia cells
COc1ccc([C@@H]2Sc3ccccc3N(CCN(C)C)C(=O)[C@@H]2OC(C)=O)cc1 [diltiazem],enhance the activity of antitumor agents against resistant sublines of murine leukemia cells,[1],enhance the activity of antitumor agents against resistant sublines of murine leukemia cells
"Cc1c2oc3c(C)ccc(C(=O)N[C@@H]4C(=O)N[C@H](C(C)C)C(=O)N5CCC[C@H]5C(=O)N(C)CC(=O)N(C)[C@@H](C(C)C)C(=O)O[C@@H]4C)c3nc-2c(C(=O)N[C@@H]2C(=O)N[C@H](C(C)C)C(=O)N3CCC[C@H]3C(=O)N(C)CC(=O)N(C)[C@@H](C(C)C)C(=O)O[C@@H]2C)c(N)c1=O [Actinomycin D, reference compound] (I: T[dV]P[Sar][NMeV] / II: T[dV]P[Sar][NMeV]; ester I:1-I:C, II:1-II:C; linker I:N-II:N via Actinocin(9to1))",inhibition at 0.01 µM,[10],10 to 20%
same,resistance of C5S32 cells to Actinomycin D compared to the parental AuxBI cell line,[8]; C5S32 vs parental AuxBI,about 200 fold
